Experimental data reported in US11026426B2, “Oxadiazole and phenol derivatives as antibacterial and/or herbicidal agents” (NORTHERN ILLINOIS RESEARCH FOUNDATION, priority 2017, dated 2021).
Like-named read-outs stand apart in the source and are kept apart here.

What was measured:
Format in all cases: cell-based
Micrococcus luteus = test: Antibacterial assay zone of inhibition Ml
Mycobacterium smegmatis = test: Antibacterial assay zone of inhibition Ms
Escherichia coli = test: Antibacterial assay zone of inhibition Ec
Corynebacterium xerosis = test: Antibacterial assay zone of inhibition Cx
[1] = system: Burkholderia thailandensis
Klebsiella pneumonia = test: Antibacterial assay zone of inhibition Kp
[2] = system: Corynebacterium pseudodiphtheriae; test: Antibacterial assay zone of inhibition Cp
Bacillus cereus = test: Antibacterial assay zone of inhibition Bc
Pseudomonas aeruginosa = test: Antibacterial assay zone of inhibition Pa

Row | SMILES | Antibacterial Ml zone of inhibition (Micrococcus luteus; 0.1 mM) [millimeters] | Antibacterial Ml zone of inhibition (Micrococcus luteus; 0.5 mM) [millimeters] | Antibacterial Ml zone of inhibition (Micrococcus luteus; 1 mM) [millimeters] | Antibacterial Ms zone of inhibition (Mycobacterium smegmatis; 0.1 mM) [millimeters] | Antibacterial Ms zone of inhibition (Mycobacterium smegmatis; 0.5 mM) [millimeters] | Antibacterial Ms zone of inhibition (Mycobacterium smegmatis; 1 mM) [millimeters] | Antibacterial Ec zone of inhibition (Escherichia coli; 0.1 mM) [millimeters] | Antibacterial Ec zone of inhibition (Escherichia coli; 0.5 mM) [millimeters] | Antibacterial Ec zone of inhibition (Escherichia coli; 1 mM) [millimeters] | Antibacterial Cx zone of inhibition (Corynebacterium xerosis; 0.1 mM) [millimeters] | Antibacterial Cx zone of inhibition (Corynebacterium xerosis; 0.5 mM) [millimeters] | Antibacterial Cx zone of inhibition (Corynebacterium xerosis; 1 mM) [millimeters] | Antibacterial Kp zone of inhibition (Klebsiella pneumonia; 0.1 mM) [millimeters] | Antibacterial Kp zone of inhibition (Klebsiella pneumonia; 0.5 mM) [millimeters] | Antibacterial Kp zone of inhibition (Klebsiella pneumonia; 1 mM) [millimeters] | Antibacterial Cp zone of inhibition ([2]; 0.1 mM) [millimeters] | Antibacterial Cp zone of inhibition ([2]; 0.5 mM) [millimeters] | Antibacterial Cp zone of inhibition ([2]; 1 mM) [millimeters] | Antibacterial Bc zone of inhibition (Bacillus cereus; 0.1 mM) [millimeters] | Antibacterial Bc zone of inhibition (Bacillus cereus; 0.5 mM) [millimeters] | also measured
1 | c1ccc(OCc2nnc(-c3cc4ccccc4[nH]3)o2)cc1 [HGN-811] | 0 | 0 | 0 | 0 | 0 | 0 | 0 | 0 | 0 | 0 | 0 | 0 | 0 | 0 | 0 | 0 | 0 | 0 | 0 | 12.5 | Antibacterial Bt zone of inhibition [1]: 0 8 12 millimeters; Antibacterial Bc zone of inhibition (Bacillus cereus; 1 mM): 16 millimeters; Antibacterial Pa zone of inhibition (Pseudomonas aeruginosa; 0.1 mM): 0 millimeters; Antibacterial Pa zone of inhibition (Pseudomonas aeruginosa; 0.5 mM): 0 millimeters; Antibacterial Pa zone of inhibition (Pseudomonas aeruginosa; 1 mM): 0 millimeters
2 | Clc1ccc(CCc2nnc(-c3nc4ccccc4s3)o2)c(Cl)c1 [HGN-824] | 0 | 0 | 0 | 0 | 12 | 18 | 0 | 0 | 0 | 0 | 0 | 0 | 0 | 0 | 0 | 0 | 0 | 10 | 0 | 0 | Antibacterial Bt zone of inhibition ([1]; 0.1 mM): 0 millimeters; Antibacterial Bt zone of inhibition ([1]; 0.5 mM): 0 millimeters; Antibacterial Bt zone of inhibition ([1]; 1 mM): 0 millimeters; Antibacterial Bc zone of inhibition (Bacillus cereus; 1 mM): 0 millimeters; Antibacterial Pa zone of inhibition (Pseudomonas aeruginosa; 0.1 mM): 0 millimeters; Antibacterial Pa zone of inhibition (Pseudomonas aeruginosa; 0.5 mM): 0 millimeters; Antibacterial Pa zone of inhibition (Pseudomonas aeruginosa; 1 mM): 0 millimeters
3 | Cc1ccc(OCc2nnc(-c3nc4ccccc4s3)o2)cc1 [HGN-825] | 0 | 0 | 11 | 0 | 13 | 18 | 0 | 0 | 0 | 0 | 0 | 0 | 0 | 0 | 0 | 0 | 0 | 0 | 0 | 0 | Antibacterial Bt zone of inhibition [1]: 0 millimeters; Antibacterial Bc zone of inhibition (Bacillus cereus; 1 mM): 11.5 millimeters; Antibacterial Pa zone of inhibition (Pseudomonas aeruginosa; 0.1 mM): 0 millimeters; Antibacterial Pa zone of inhibition (Pseudomonas aeruginosa; 0.5 mM): 0 millimeters; Antibacterial Pa zone of inhibition (Pseudomonas aeruginosa; 1 mM): 0 millimeters
4 | Clc1ccc(OCc2nnc(-c3nc4ccccc4s3)o2)cc1 [HGN-826] | 0 | 0 | 0 | 0 | 13 | 20 | 0 | 0 | 0 | 0 | 0 | 0 | 0 | 0 | 0 | 0 | 0 | 0 | 0 | 0 | Antibacterial Bt zone of inhibition ([1]; 0.1 mM): 0 millimeters; Antibacterial Bt zone of inhibition ([1]; 0.5 mM): 0 millimeters; Antibacterial Bt zone of inhibition ([1]; 1 mM): 0 millimeters; Antibacterial Bc zone of inhibition (Bacillus cereus; 1 mM): 12 millimeters; Antibacterial Pa zone of inhibition (Pseudomonas aeruginosa; 0.1 mM): 0 millimeters; Antibacterial Pa zone of inhibition (Pseudomonas aeruginosa; 0.5 mM): 0 millimeters; Antibacterial Pa zone of inhibition (Pseudomonas aeruginosa; 1 mM): 0 millimeters
5 | COc1ccc(OCc2nnc(-c3nc4ccccc4s3)o2)cc1 [HGN-833] | 0 | 0 | 13 | 0 | 0 | 0 | 0 | 0 | 0 | 0 | 0 | 15 | 0 | 0 | 0 | 0 | 0 | 14 | 0 | 10 | Antibacterial Bt zone of inhibition ([1]; 0.1 mM): 0 12 17 millimeters; Antibacterial Bt zone of inhibition ([1]; 0.5 mM): 0 12 17 millimeters; Antibacterial Bt zone of inhibition ([1]; 1 mM): 0 12 17 millimeters; Antibacterial Bc zone of inhibition (Bacillus cereus; 1 mM): 15 millimeters; Antibacterial Pa zone of inhibition (Pseudomonas aeruginosa; 0.1 mM): 0 millimeters; Antibacterial Pa zone of inhibition (Pseudomonas aeruginosa; 0.5 mM): 0 millimeters; Antibacterial Pa zone of inhibition (Pseudomonas aeruginosa; 1 mM): 0 millimeters
